Measurements from ChEMBL document CHEMBL1909294, “Translating clinical findings into knowledge in drug safety evaluation--drug induced liver injury prediction system (DILIps)” (PLoS Comput Biol, 2011).

Columns and labels:
Hepatotoxicity [1] = test system: Hepatotoxicity;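 on HepSE bilirubinemia: bilirubinemia hepatic side effect score drawn from the DILIps training data, a prediction system for drug-induced liver injury; call rule not given here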;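 on HepSE cholecystitis: Cholecystitis-related hepatic side effect score drawn from the DILIps (drug-induced liver injury prediction) training data set; call rule not given here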;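 on HepSE cholelithiasis: hepatic side effect score for cholelithiasis, drawn from the DILIps training data for predicting drug-induced liver injury; call rule not given here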;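 on HepSE cirrhosis: cirrhosis hepatic side effect score taken from the DILIps (drug-induced liver injury prediction) training set; call rule not given here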;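 on HepSE elevated liver function tests: hepatic side effect score for raised liver function tests, as recorded in the DILIps training set used for predicting drug-induced liver injury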; on HepSE hepatic failure: call rule not given here;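 on HepSE hepatomegaly: hepatic side effect score for hepatomegaly, taken from the training set of the DILIps drug-induced liver injury prediction system; call rule not given here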
Hepatotoxicity [2] = test system: Hepatotoxicity; remark: listed apart in the source;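 on HepSE bilirubinemia: bilirubinemia hepatic side effect score drawn from the DILIps training data, a prediction system for drug-induced liver injury; call rule not given here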;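 on HepSE cholecystitis: Cholecystitis-related hepatic side effect score drawn from the DILIps (drug-induced liver injury prediction) training data set; call rule not given here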;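 on HepSE cholelithiasis: hepatic side effect score for cholelithiasis, drawn from the DILIps training data for predicting drug-induced liver injury; call rule not given here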;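 on HepSE cirrhosis: cirrhosis hepatic side effect score taken from the DILIps (drug-induced liver injury prediction) training set; call rule not given here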;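 on HepSE elevated liver function tests: hepatic side effect score for raised liver function tests, as recorded in the DILIps training set used for predicting drug-induced liver injury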; on HepSE hepatic failure: call rule not given here;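 on HepSE hepatomegaly: hepatic side effect score for hepatomegaly, taken from the training set of the DILIps drug-induced liver injury prediction system; call rule not given here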
Hepatotoxicity [3] = test system: Hepatotoxicity; remark: listed apart in the source;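 on HepSE bilirubinemia: bilirubinemia hepatic side effect score drawn from the DILIps training data, a prediction system for drug-induced liver injury; call rule not given here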;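 on HepSE cholecystitis: Cholecystitis-related hepatic side effect score drawn from the DILIps (drug-induced liver injury prediction) training data set; call rule not given here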;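 on HepSE cholelithiasis: hepatic side effect score for cholelithiasis, drawn from the DILIps training data for predicting drug-induced liver injury; call rule not given here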;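 on HepSE cirrhosis: cirrhosis hepatic side effect score taken from the DILIps (drug-induced liver injury prediction) training set; call rule not given here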;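 on HepSE elevated liver function tests: hepatic side effect score for raised liver function tests, as recorded in the DILIps training set used for predicting drug-induced liver injury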; on HepSE hepatic failure: call rule not given here
Hepatotoxicity [4] = test system: Hepatotoxicity; remark: listed apart in the source;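 on HepSE bilirubinemia: bilirubinemia hepatic side effect score drawn from the DILIps training data, a prediction system for drug-induced liver injury; call rule not given here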;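 on HepSE cholecystitis: Cholecystitis-related hepatic side effect score drawn from the DILIps (drug-induced liver injury prediction) training data set; call rule not given here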;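 on HepSE cholelithiasis: hepatic side effect score for cholelithiasis, drawn from the DILIps training data for predicting drug-induced liver injury; call rule not given here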;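 on HepSE cirrhosis: cirrhosis hepatic side effect score taken from the DILIps (drug-induced liver injury prediction) training set; call rule not given here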;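 on HepSE elevated liver function tests: hepatic side effect score for raised liver function tests, as recorded in the DILIps training set used for predicting drug-induced liver injury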; on HepSE hepatic failure: call rule not given here
Hepatotoxicity [5] = test system: Hepatotoxicity; remark: listed apart in the source; on HepSE hepatic failure: call rule not given here
Hepatotoxicity [6] = test system: Hepatotoxicity; remark: listed apart in the source; on HepSE hepatic failure: call rule not given here
Hepatotoxicity [7] = test system: Hepatotoxicity; remark: listed apart in the source
Hepatotoxicity [8] = test system: Hepatotoxicity; remark: listed apart in the source
Hepatotoxicity [9] = test system: Hepatotoxicity; remark: listed apart in the source
Hepatotoxicity [10] = test system: Hepatotoxicity; remark: listed apart in the source
Hepatotoxicity [11] = test system: Hepatotoxicity; remark: listed apart in the source
Hepatotoxicity [12] = test system: Hepatotoxicity; remark: listed apart in the source
Hepatotoxicity [13] = test system: Hepatotoxicity; remark: listed apart in the source
Hepatotoxicity [14] = test system: Hepatotoxicity; remark: listed apart in the source

Structure (SMILES): CCOC(=O)C1(c2ccccc2)CCN(C)CC1 [MEPERIDINE]
- HepSE_bilirubinemia (Hepatotoxicity [1]): 0
- HepSE_cholecystitis (Hepatotoxicity [2]): 0
- HepSE_cholelithiasis (Hepatotoxicity [3]): 0
- HepSE_cirrhosis (Hepatotoxicity [4]): 0
- HepSE_elevated liver function tests (Hepatotoxicity [5]): 0
- HepSE_hepatic failure (Hepatotoxicity [6]): 0
- HepSE_hepatic necrosis (Hepatotoxicity [7]): 0
- HepSE_hepatitis (Hepatotoxicity [8]): 0
- HepSE_hepatomegaly (Hepatotoxicity [9]): 0
- HepSE_jaundice (Hepatotoxicity [10]): 0
- HepSE_liver disease (Hepatotoxicity [11]): 0
- HepSE_liver fatty (Hepatotoxicity [12]): 0
- HepSE_liver function tests abnormal (Hepatotoxicity [13]): 0
- HepSE_Combined Scores (Hepatotoxicity [14]): 0

Structure (SMILES): NS(=O)(=O)c1cc2c(cc1Cl)N=CNS2(=O)=O [CHLOROTHIAZIDE]
- HepSE_bilirubinemia (Hepatotoxicity [1]): 0
- HepSE_cholecystitis (Hepatotoxicity [2]): 0
- HepSE_cholelithiasis (Hepatotoxicity [3]): 0
- HepSE_cirrhosis (Hepatotoxicity [4]): 0
- HepSE_elevated liver function tests (Hepatotoxicity [5]): 0
- HepSE_hepatic failure (Hepatotoxicity [6]): 0
- HepSE_hepatic necrosis (Hepatotoxicity [7]): 0
- HepSE_hepatitis (Hepatotoxicity [8]): 0
- HepSE_hepatomegaly (Hepatotoxicity [9]): 0
- HepSE_jaundice (Hepatotoxicity [10]): 1
- HepSE_liver disease (Hepatotoxicity [11]): 0
- HepSE_liver fatty (Hepatotoxicity [12]): 0
- HepSE_liver function tests abnormal (Hepatotoxicity [13]): 0
- HepSE_Combined Scores (Hepatotoxicity [14]): 1

Structure (SMILES): CNC1=Nc2ccc(Cl)cc2C(c2ccccc2)=[N+]([O-])C1 [CHLORDIAZEPOXIDE]
- HepSE_bilirubinemia (Hepatotoxicity [1]): 0
- HepSE_cholecystitis (Hepatotoxicity [2]): 0
- HepSE_cholelithiasis (Hepatotoxicity [3]): 0
- HepSE_cirrhosis (Hepatotoxicity [4]): 0
- HepSE_elevated liver function tests (Hepatotoxicity [5]): 0
- HepSE_hepatic failure (Hepatotoxicity [6]): 0
- HepSE_hepatic necrosis (Hepatotoxicity [7]): 0
- HepSE_hepatitis (Hepatotoxicity [8]): 0
- HepSE_hepatomegaly (Hepatotoxicity [9]): 0
- HepSE_jaundice (Hepatotoxicity [10]): 1
- HepSE_liver disease (Hepatotoxicity [11]): 0
- HepSE_liver fatty (Hepatotoxicity [12]): 0
- HepSE_liver function tests abnormal (Hepatotoxicity [13]): 0
- HepSE_Combined Scores (Hepatotoxicity [14]): 1

Structure (SMILES): COc1cc(N)c(Cl)cc1C(=O)NC1CCN(CCCOc2ccc(F)cc2)CC1OC (centres undefined) [CISAPRIDE]
- HepSE_bilirubinemia (Hepatotoxicity [1]): 0
- HepSE_cholecystitis (Hepatotoxicity [2]): 0
- HepSE_cholelithiasis (Hepatotoxicity [3]): 0
- HepSE_cirrhosis (Hepatotoxicity [4]): 0
- HepSE_elevated liver function tests (Hepatotoxicity [5]): 0
- HepSE_hepatic failure (Hepatotoxicity [6]): 0
- HepSE_hepatic necrosis (Hepatotoxicity [7]): 0
- HepSE_hepatitis (Hepatotoxicity [8]): 1
- HepSE_hepatomegaly (Hepatotoxicity [9]): 0
- HepSE_jaundice (Hepatotoxicity [10]): 0
- HepSE_liver disease (Hepatotoxicity [11]): 0
- HepSE_liver fatty (Hepatotoxicity [12]): 0
- HepSE_liver function tests abnormal (Hepatotoxicity [13]): 0
- HepSE_Combined Scores (Hepatotoxicity [14]): 1

Structure (SMILES): CN(Cc1cnc2nc(N)nc(N)c2n1)c1ccc(C(=O)N[C@@H](CCC(=O)O)C(=O)O)cc1 [METHOTREXATE]
- HepSE_bilirubinemia (Hepatotoxicity [1]): 1
- HepSE_cholecystitis (Hepatotoxicity [2]): 0
- HepSE_cholelithiasis (Hepatotoxicity [3]): 0
- HepSE_cirrhosis (Hepatotoxicity [4]): 1
- HepSE_elevated liver function tests (Hepatotoxicity [5]): 1
- HepSE_hepatic failure (Hepatotoxicity [6]): 1
- HepSE_hepatic necrosis (Hepatotoxicity [7]): 0
- HepSE_hepatitis (Hepatotoxicity [8]): 1
- HepSE_hepatomegaly (Hepatotoxicity [9]): 0
- HepSE_jaundice (Hepatotoxicity [10]): 0
- HepSE_liver disease (Hepatotoxicity [11]): 0
- HepSE_liver fatty (Hepatotoxicity [12]): 0
- HepSE_liver function tests abnormal (Hepatotoxicity [13]): 0
- HepSE_Combined Scores (Hepatotoxicity [14]): 5

Structure (SMILES): CN1CCN2c3ncccc3Cc3ccccc3C2C1 (centres undefined) [MIRTAZAPINE]
- HepSE_bilirubinemia (Hepatotoxicity [1]): 0
- HepSE_cholecystitis (Hepatotoxicity [2]): 1
- HepSE_cholelithiasis (Hepatotoxicity [3]): 0
- HepSE_cirrhosis (Hepatotoxicity [4]): 1
- HepSE_elevated liver function tests (Hepatotoxicity [5]): 0
- HepSE_hepatic failure (Hepatotoxicity [6]): 0
- HepSE_hepatic necrosis (Hepatotoxicity [7]): 0
- HepSE_hepatitis (Hepatotoxicity [8]): 0
- HepSE_hepatomegaly (Hepatotoxicity [9]): 0
- HepSE_jaundice (Hepatotoxicity [10]): 0
- HepSE_liver disease (Hepatotoxicity [11]): 0
- HepSE_liver fatty (Hepatotoxicity [12]): 0
- HepSE_liver function tests abnormal (Hepatotoxicity [13]): 1
- HepSE_Combined Scores (Hepatotoxicity [14]): 3
